Measurements from US20250205195A1, “BENZYLOXY-BENZYLAMINYL AMINO ACID DERIVATIVE FOR ADJUSTING TSLP/TSLPR SIGNAL TRANSMISSION” (AMTIXBIO CO., LTD., priority 2021, published 2025).

How the values were obtained:
interleukin-6 (IL-6) = experiment: TNF-α/IFN-induced interleukin-6 in HaCaT keratinocytes (ELISA); type: cell-based, human; details: HaCaT cells, 0, 1, 2, 4 and 8 µg/mL, TNF-α and IFN 50 ng/mL each, 24 h
Procedure: Furthermore, human keratinocyte HaCaT cells (obtained from the Korean Cell Line Bank) were seeded at an initial density of 2×10^5 cells/well in a 12-well plate and cultured at 37° C. for 16 to 24 hours. The compound 27 of the present invention was then added to the HaCaT cell culture medium at final concentrations of 0, 1, 2, 4, and 8 µg/mL and the cells were cultured at 37° C. for 1 hour. Subsequently, to induce interleukin-6, the culture medium was treated with TNF-α (Sigma-Aldrich, USA) and […] (Sigma-Aldrich, USA) to final concentrations of 50 ng/mL each, and the cells were cultured for an additional 24 hours at 37° C. Next, the culture supernatant was collected, and the amount of induced interleukin-6 from HaCaT cells was determined using an ELISA kit (LABIS KOMA, South Korea) according to the manufacturer's instructions.
Human keratinocyte HaCaT cells (obtained from the Korean Cell Line Bank) were seeded in a 12-well plate at an initial density of 2×10^5 cells/well and cultured at 37° C. for 16 to 24 hours. […] The culture supernatant was collected, and the amount of induced interleukin-6 from HaCaT cells was determined using an ELISA kit (LABIS KOMA, South Korea) according to the manufacturer's instructions.

interleukin-4 (IL-4) = experiment: PMA/ionomycin-induced interleukin-4 in RBL-2H3 cells (ELISA); type: cell-based, rat; details: RBL-2H3 cells, 0, 1, 2, 4 and 8 µg/mL, 24 h
Procedure: Rat basophilic leukemia cells RBL-2H3 (obtained from the Korean Cell Line Bank) were seeded at an initial density of 2×10^5 cells/well in a 48-well plate and cultured at 37° C. for 16 to 24 hours. Subsequently, compound 27 of the present invention was added to the RBL-2H3 cell culture medium at final concentrations of 0, 1, 2, 4, and 8 µg/mL and the cells were cultured at 37° C. for 1 hour. Next, to induce interleukin-4, the culture medium was treated with PMA ([…], Sigma-Aldrich, USA) and ionomycin (Sigma-Aldrich, USA) to final concentrations of 50 ng/mL and […], respectively, and the cells were cultured for an additional 24 hours at 37° C. The culture supernatant was then collected, and the amount of induced interleukin-4 from RBL-2H3 cells was determined using an ELISA kit (LABIS KOMA, South Korea) according to the manufacturer's instructions. FIG. 2 (a) represents the results.

[1] = test system: DNCB-induced atopic dermatitis mice; experiment: DNCB-induced atopic dermatitis mouse model; type: in vivo, ICR mice; details: vs DNCB-treated group
Procedure: ICR mice (Orient Bio Inc., male, 4 weeks old) were used, with four mice per group. The mice were acclimatized for one week under controlled conditions (23±2° C., humidity 55±10%, 12-hour light/dark cycle, animal facility at Sungkyunkwan University) and were shaved using clippers and depilatory cream before drug treatment. Following the conventional method, 1% DNCB (2,4-dinitrochlorobenzene, Sigma-Aldrich Co., St. Louis, USA) (200 l) was applied to the dorsal area of the mice every 2 days, four times a week for one week. Subsequently, 0.5% DNCB (200 l) was applied again at 2-day intervals, eight times, to induce atopic dermatitis (Ara, J., Mol Cell Toxicol 2019). One week after DNCB treatment, signs of lesions were confirmed in all mice. Then, the mice were topically administered with the compound 27 of the present invention, dissolved in sterile water at a concentration of 1% (w/v), starting from the point of 0.5% DNCB application, once daily for two weeks. The experimental animals were supplied with powdered feed (Purina, Switzerland), and water and feed were freely available throughout the experimental period. Symptoms associated with atopic dermatitis, such as erythema, edema, scaling, crusting, lichenification, inflammation, bleeding and skin dryness, were observed and recorded according to the Scoring Atopic Dermatitis (SCORAD) index in Table 2.
Using the Mosquito Blood Collection System, blood was drawn from the retro-orbital plexus, and serum was separated. Skin tissue proteins were extracted using a homogenizer in 0.2% PBS (phosphate buffer saline). To measure the concentration of IgE, an IgE ELISA kit (Shibayagi, Japan) was used following the manufacturer's instructions, and analysis was performed using an ELISA reader. The concentrations of TNF-α, IL-4, CCL22/MDC, MMP-12, and S100A9 were measured using Luminex® Assays (R&D Systems, USA).
Skin tissues from the mouse dorsal area were separated and fixed in 10% formalin (10% Neutral Buffered Formalin, Kang Dong Trading, South Korea) for 72 hours. The fixed tissues were washed with water for about 1 hour and then processed into paraffin blocks. The paraffin blocks were sectioned into 8 m slices using a microtome, followed by staining with Harris's hematoxylin solution. Subsequently, the sections were treated with 1% HCl-alcohol, neutralized with 0.5% ammonia solution, and stained with Eosin solution. Next, dehydration was performed using alcohol and xylene, and the sections were mounted on slides using Canada balsam. FIGS. 7 (a) and (b) represent the results.
To determine the concentrations of IgE and TSLP in mouse serum, IgE ELISA kit (Shibayagi, JP) and TSLP ELISA kit (R&D systems, USA) were used following the manufacturer's instructions. As shown in FIGS. 8 (a) and (b), the serum concentrations of IgE and TSLP increased in the DNCB-treated group.
Proteins were extracted from skin tissues of atopic dermatitis mice on the dorsal area, and the levels of TNF-α, IL-1β, CCL22/MDC, IL-4, MMP-12, and S100A9 were measured using Luminex® Assays (R&D systems, USA).

## CCC(NC)C(=O)NCc1ccc(OCc2ccc(C(F)(F)F)cc2)cc1 (racemic) [Compound 27, (R)/(S)-2-(methylamino)-N-(4-((4-trifluoromethyl)benzyl)oxy)benzyl)butanamide]
interleukin-6 (IL-6)
  amount of induced interleukin-6: decreased
interleukin-4 (IL-4)
  amount of induced interleukin-4: decreased proportionally
[1]; Luminex
  CCL22/MDC level in skin tissue: significant decrease
  IL-1β level in skin tissue: significant decrease
  IL-4 level in skin tissue: significant decrease
  MMP-12 level in skin tissue: significant decrease
  S100A9 level in skin tissue: significant decrease
  TNF-α level in skin tissue: significant decrease
[1]; topical 1% (w/v), once daily, two weeks
  symptoms of dermatitis (SCORAD index): significant reduction
[1]; topical 1% (w/v)
  expression of inflammatory cells (H&E, skin tissue): significant decrease
  serum IgE concentration: decrease
  serum TSLP concentration: decrease
  thickness of the epidermal layer: significant reduction
